From the supplement of paper PMC4932681

Legend:
ZR-75-1 [1] = assay: relative IC50 (midpoint of fitted logistic curve, plateau may be below 50% inhibition; CellTiter-Glo viability); higher = less potent; conditions: 72 h
Summary of the method: (§1)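 Breast cancer cell lines and their resistant derivatives were seeded into 384-well plates holding FO2Baq library drugs at five concentrations spanning a 10 000-fold range. Resistant lines were in medium with 1 μM of the selecting drug. Cells were incubated 72 h at 37 °C, and CellTiter-Glo viability was read on a PHERAstar and normalised to vehicle-only and positive controls. Drug sensitivity score, relative IC50 (curve midpoint) and top-dose inhibition came from logistic dose–response fits (Breeze pipeline).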

BT-474 [2] = assay: as above; conditions: 72 h
Summary of the method: as §1

T-47D Tam2 [3] = assay: as above; conditions: 4-OH-tamoxifen in medium 1 µM; 72 h
Summary of the method: as §1

BT-474 Tam2 [4] = assay: as above; conditions: 4-OH-tamoxifen in medium 1 µM; 72 h
Summary of the method: as §1

T-47D Tam1 [5] = assay: as above; conditions: 4-OH-tamoxifen in medium 1 µM; 72 h
Summary of the method: as §1

MCF-7 Tam1 [6] = assay: as above; conditions: 4-OH-tamoxifen in medium 1 µM; 72 h
Summary of the method: as §1

ZR-75-1 Tam2 [7] = assay: as above; conditions: 4-OH-tamoxifen in medium 1 µM; 72 h
Summary of the method: as §1

MCF-7 [8] = assay: as above; conditions: 72 h
Summary of the method: as §1

T-47D [9] = assay: as above; conditions: 72 h
Summary of the method: as §1

ZR-75-1 Tam1 [10] = assay: as above; conditions: 4-OH-tamoxifen in medium 1 µM; 72 h
Summary of the method: as §1

BT-474 Tam1 [11] = assay: as above; conditions: 4-OH-tamoxifen in medium 1 µM; 72 h
Summary of the method: as §1

ZR-75-1 [12] = assay: drug sensitivity score (DSS) (DSS (dimensionless)); higher = more sensitive; extreme values may be limits of the assay; conditions: 72 h
Summary of the method: as §1

BT-474 [13] = assay: as above; conditions: 72 h
Summary of the method: as §1

T-47D Tam2 [14] = assay: as above; conditions: 4-OH-tamoxifen in medium 1 µM; 72 h
Summary of the method: as §1

BT-474 Tam2 [15] = assay: as above; conditions: 4-OH-tamoxifen in medium 1 µM; 72 h
Summary of the method: as §1

T-47D Tam1 [16] = assay: as above; conditions: 4-OH-tamoxifen in medium 1 µM; 72 h
Summary of the method: as §1

MCF-7 Tam1 [17] = assay: as above; conditions: 4-OH-tamoxifen in medium 1 µM; 72 h
Summary of the method: as §1

ZR-75-1 Tam2 [18] = assay: as above; conditions: 4-OH-tamoxifen in medium 1 µM; 72 h
Summary of the method: as §1

MCF-7 [19] = assay: as above; conditions: 72 h
Summary of the method: as §1

T-47D [20] = assay: as above; conditions: 72 h
Summary of the method: as §1

ZR-75-1 Tam1 [21] = assay: as above; conditions: 4-OH-tamoxifen in medium 1 µM; 72 h
Summary of the method: as §1

BT-474 Tam1 [22] = assay: as above; conditions: 4-OH-tamoxifen in medium 1 µM; 72 h
Summary of the method: as §1

Row | relative IC50 (BT-474 [2]; 4-OH-tamoxifen in medium 0 µM) [nM] | relative IC50 (BT-474 [2]; 4-OH-tamoxifen in medium 1 µM) [nM] | relative IC50 (T-47D Tam2 [3]) [nM] | relative IC50 (BT-474 Tam2 [4]) [nM] | relative IC50 (T-47D Tam1 [5]) [nM] | relative IC50 (MCF-7 Tam1 [6]) [nM] | relative IC50 (MCF-7 [8]; 4-OH-tamoxifen in medium 0 µM) [nM] | relative IC50 (MCF-7 [8]; 4-OH-tamoxifen in medium 1 µM) [nM] | relative IC50 (T-47D [9]; 4-OH-tamoxifen in medium 0 µM) [nM] | relative IC50 (T-47D [9]; 4-OH-tamoxifen in medium 1 µM) [nM] | relative IC50 (BT-474 Tam1 [11]) [nM] | Structure (SMILES) | relative IC50 (ZR-75-1 [1]; 4-OH-tamoxifen in medium 0 µM) [nM] | relative IC50 (ZR-75-1 [1]; 4-OH-tamoxifen in medium 1 µM) [nM] | relative IC50 (ZR-75-1 Tam2 [7]) [nM] | relative IC50 (ZR-75-1 Tam1 [10]) [nM] | drug sensitivity score (ZR-75-1 [12]; 4-OH-tamoxifen in medium 0 µM) | drug sensitivity score (ZR-75-1 [12]; 4-OH-tamoxifen in medium 1 µM) | drug sensitivity score (BT-474 [13]; 4-OH-tamoxifen in medium 0 µM) | drug sensitivity score (BT-474 [13]; 4-OH-tamoxifen in medium 1 µM) | drug sensitivity score (T-47D Tam2 [14]) | drug sensitivity score (BT-474 Tam2 [15]) | drug sensitivity score (T-47D Tam1 [16]) | drug sensitivity score (MCF-7 Tam1 [17]) | drug sensitivity score (ZR-75-1 Tam2 [18]) | drug sensitivity score (MCF-7 [19]; 4-OH-tamoxifen in medium 0 µM) | drug sensitivity score (MCF-7 [19]; 4-OH-tamoxifen in medium 1 µM) | drug sensitivity score (T-47D [20]; 4-OH-tamoxifen in medium 0 µM) | drug sensitivity score (T-47D [20]; 4-OH-tamoxifen in medium 1 µM) | drug sensitivity score (ZR-75-1 Tam1 [21]) | drug sensitivity score (BT-474 Tam1 [22])
1 | 359 | 283 | 472 | 182 | 148 | 582 | 201 | 419 | 713 | 884 | 202 | CS(=O)(=O)N1CCN(Cc2cc3nc(-c4cccc5[nH]ncc45)nc(N4CCOCC4)c3s2)CC1 [Pictilisib (GDC-0941)] | 208 | 453 | 415 | 514 | 12.7 | 9.23 | 10.2 | 16.4 | 9.95 | 17.2 | 14.7 | 8.69 | 12.1 | 15.4 | 12.8 | 9.41 | 9.59 | 11.3 | 17.4
2 | > 10000 | > 10000 | > 10000 | > 10000 | > 10000 | > 10000 | > 10000 | > 10000 | > 10000 | > 10000 | > 10000 | O=C(CCBr)N1CCN(C(=O)CCBr)CC1 [Pipobroman] | > 10000 | > 10000 | > 10000 | > 10000 | 0 | 0 | 0 | 0 | 0 | 0 | 0 | 0 | 0 | 0 | 0 | 0 | 0 | 0 | 0
3 | > 2500 | > 2500 | > 2500 | > 2500 | > 2500 | > 2500 | > 2500 | > 2500 | > 2500 | > 2500 | > 2500 | c1cc(CN2CCCNCCNCCCNCC2)ccc1CN1CCCNCCNCCCNCC1 [Plerixafor] | > 2500 | > 2500 | > 2500 | > 2500 | 0 | 0 | 0 | 0 | 0 | 0 | 0 | 0 | 0 | 0 | 0 | 0.403 | 0 | 0 | 0
4 | 357 | 542 | 57 | 495 | 36.3 | 318 | 401 | 150 | 84.6 | 110 | 632 | CO[C@H](C(=O)[C@@H](O)[C@@H](C)O)[C@@H]1Cc2cc3cc(O[C@H]4C[C@@H](O[C@@H]5C[C@@H](O)[C@H](O)[C@@H](C)O5)[C@H](O)[C@@H](C)O4)c(C)c(O)c3c(O)c2C(=O)[C@H]1O[C@H]1C[C@@H](O[C@@H]2C[C@@H](O)[C@@H](O[C@@H]3C[C@](C)(O)[C@H](O)[C@@H](C)O3)[C@@H](C)O2)[C@H](O)[C@@H](C)O1 [Plicamycin  (Mithramycin A)] | 45.3 | 66.5 | 64.5 | 58.6 | 21.5 | 19 | 11.9 | 14.3 | 17.4 | 14.9 | 22 | 14.1 | 23.6 | 14.9 | 20.1 | 18.4 | 13.2 | 22.1 | 13.7
5 | > 10000 | > 10000 | > 10000 | > 10000 | > 10000 | > 10000 | > 10000 | > 10000 | > 10000 | > 10000 | > 10000 | C[C@]12C=CC(=O)C=C1CC[C@@H]1[C@@H]2C(=O)C[C@@]2(C)[C@H]1CC[C@]2(O)C(=O)CO [Prednisone] | > 10000 | > 10000 | > 10000 | > 10000 | 0 | 0 | 0 | 0 | 0 | 0 | 0 | 0 | 0 | 0 | 0 | 0 | 0 | 0 | 0
6 | > 10000 | > 10000 | > 10000 | > 10000 | > 10000 | > 10000 | > 10000 | > 10000 | > 10000 | > 10000 | > 10000 | CNNCc1ccc(C(=O)NC(C)C)cc1 [Procarbazine] | > 10000 | > 10000 | > 10000 | > 10000 | 0 | 0 | 0 | 0 | 0 | 0 | 0 | 0 | 0 | 0 | 0 | 0 | 0 | 0 | 0
7 |  | 83.7 | 600 | 420 | 362 | 1200 | 38.2 | 134 | 451 |  | 82.9 | CC(C)(C)c1cnc(CSc2cnc(NC(=O)C3CCNCC3)s2)o1 [SNS-032] | 243 | 315 | 297 | 308 | 12.3 | 9.55 | 0.78 | 15.8 | 4.33 | 14.4 | 8.4 | 2.67 | 11.1 | 20 | 11.8 | 7.36 | 1.24 | 9.78 | 23.8
